13 molecules from US6831080B2, “Cinnamide derivatives as KCNQ potassium channel modulators” (Bristol-Myers Squibb Company, priority 2001, dated 2004) can be followed below.

In series [1] the test system is stretched attend postures, BalbC/HSD mice. In words: Canopy test for anxiety: stretched attend postures (SAPs). It is filed as in vivo, mouse. An excerpt: The purpose of the Canopy test is to investigate the potential of compounds of Formula I as effective treatments for anxiety by examining an integral component of the risk assessment repertoire of defensive behaviors, the stretched attend posture (SAPs). […] This behavior is investigatory, and is considered an important behavioral indicator of anxiety in mice (Grewal et al., 1997). In brief, mice are placed on an elevated circular platform with a covered space in the middle, and an open space surrounding the covered zone. The number of SAPs the animals makes when exploring this environment are measured.
Subjects: Male BalbC/HSD mice (Harlan Sprague Dawley) weighing approximately 20-25 g at the beginning of the experiment, were used. Animals were group housed 4-5 per cage, in standard shoebox cages and maintained on a 12:12 h light-dark cycle (lights on at 0600). All animals were allowed food and water ad libitum throughout the procedure.
Apparatus: The test apparatus is comprised of a black plexiglas circular platform (70 cm diameter) elevated 60 cm above the floor. A clear red plexiglas (translucent) ‘canopy’ (38 cm diameter) is supported 4 cm directly above the platform by a central pillar, effectively dividing the platform into an inner, covered zone (beneath the canopy) and an outer, exposed zone. The apparatus is illuminated by normal room lighting.
Procedure: On test days mice are transported in their home cage to the testing room which is free of noise/distraction and the mice are injected with the compound of choice, prior to testing. For the KCNQ compounds, when administered IV, pretreatment time is 15 minutes. For oral administration, pretreatment time is 1 hour. Following the pretreatment, the animal is placed in the covered zone of the platform, always oriented in the same direction, facing the pillar. For 5 minutes the animals are allowed to freely explore the apparatus. The dependent variable is the number of Stretched Attend Postures, which are scored by an observer blind to treatment condition. Data were analyzed by an overall analysis of variance followed by Dunnett's post hoc tests. An effect was considered significant if p<0.05.
All test compounds are administered in a volume of 10 ml/kg. Vehicle and buspirone (as the positive control) treated mice were run with each experiment, and buspirone was dissolved in the same vehicle as used per each compound. Compounds of Formula I were administered IV, in a vehicle containing 10% PEG400/5% Tween/85% water, warmed on a hot plate.

In series [2] the target is cloned mouse KCNQ2 (mKCNQ2) (Mus musculus, UniProt Q9Z351). In words: KCNQ oocyte two-electrode voltage clamp, whole-cell outward current. It is filed as cell-based. To be noted: single holding potential (−40 μM [sic]), Xenopus oocytes. How it is done:
The ability of compounds described in the present invention to open KCNQ channels and increase whole-cell outward (K^+) KCNQ-mediated currents was assessed under voltage-clamp conditions by determining their ability to increase cloned mouse KCNQ2 (mKCNQ2)-mediated, heteromultimeric KCNQ2/3 (mKCNQ2/hKCNQ3)-mediated, and human KCNQ5 (hKCNQ5)-mediated outward currents heterologously expressed in Xenopus oocytes. Oocytes were prepared and injected using standard techniques; each oocyte was injected with approximately 50 nl of mKCNQ2, or hKCNQ5 cRNA. In the case of mKCNQ2/h3 heteromultimeric channel expression, equal amounts (25-50 nL) of each cRNA were co-injected. […] Following injection, oocytes were maintained at 17° in ND96 medium consisting of (in mM): NaCl, 90; KCl, 1.0; CaCl2, 1.0; MgCl2, 1.0; HEPES, 5.0; pH 7.5. Horse serum (5%) and penicillin/streptomycin (5%) were added to the incubation medium. Recording commenced 2-6 days following mRNA injection. Prior to the start of an experiment oocytes were placed in a recording chamber and incubated in Modified Barth's Solution (MBS) consisting of (in mM): NaCl, 88; NaHCO3, 2.4; KCl, 1.0; HEPES, 10; MgSO4, 0.82; Ca(NO3)2, 0.33; CaCl2, 0.41; pH 7.5.
Oocytes were impaled with electrodes (1-2 MΩ) and standard 2-electrode voltage clamp techniques were employed to record whole-cell membrane currents. Recordings were accomplished using standard two-electrode voltage clamp techniques [Stuhmer, W., et al., Methods in Enzymology, Vol. 207: 319-339 (1992)]. Voltage-clamp protocols typically consisted of a series of voltage steps 1-5 sec duration, in +10 mV steps from a holding potential of −90 mV to a maximal potential of +40 mV; records were digitized at 5 kHz and stored on a computer using pClamp data acquisition and analysis software (Axon Instruments). Compounds were evaluated at a single concentration and at a single holding potential (−40 μM); the effect of the selected compounds of Formula I on KCNQ2 current was expressed as the percent of control current and is listed in Table I.

Another series deals with T1, mKCNQ2 channels (Mus musculus, UniProt Q9Z351).
T1 construct: expressed in transfected cells
In words: Whole-cell patch-clamp, HEK 293 stable cell line expressing mKCNQ2 channels. It is filed as cell-based. To be noted: HEK 293 mKCNQ2, Hill fit. How it is done:
Whole-cell patch-clamp recordings were made from an HEK 293 stable cell line expressing mKCNQ2 channels, maintained in culture for 1-2 days. Patch pipettes had initial resistances of 2.5-4 MΩ. Currents were recorded with an EPC-9 amplifier (HEKA, Lambrecht, Germany) controlled with software (Pulse, HEKA) run on a standard lab PC. Series resistance compensation was used during current recording, and set at 80%. The series resistance (R) and cell capacitance (C) were determined electronically by subtracting the capacitive currents at the onset and offset of a 5 mV voltage step. The cancellation of whole-cell capacitance transients was virtually complete in all cells. Analog current signals were low-pass filtered at 2.9 kHz using a four-pole Bessel filter −3 dB) and stored on a local network server computer at a sampling rate of […]. All recordings were performed at room temperature (20-22° C.). The pipette solution contained (mM): KCl, 150; CaCl2, 2.5; EGTA, 5; MgCl2, 1; HEPES, 10; pH to 7.3 with KOH, and Osmolality of 290-300 mOsm. The extracellular solution contained (mM): NaCl, 140; KCl, 2.5; CaCl2, 2.5; MgCl2, 1; glucose, 10; HEPES, 10; pH to 7.3 with NaOH, and Osmolality of 305-310 mOsm
Concentration response data were generated by measuring the difference in the steady-state amplitude of current in the presence of compound at the end of a 600 ms voltage-clamp step from a holding potential of −80 mV. The concentration-response data were fitted with Hill-type equations: […]
where I is the steady-state current at a given concentration of agonist [A]; and Imax, EC50 and nH are parameters estimated from the curve fit. In some cases the concentration-response data were fitted with equations consisting of the sum of two Hill-type components. Current-voltage (I/V) relationships for agonist-evoked currents were obtained by performing 600 ms voltage steps (−110 mV to +40 mV) in the absence and presence of agonist.

Series [3] relates to cortical spreading depression (KCl application), Long-Evans rats. In words: In vivo electrophysiology: number of cortical spreading depressions produced by KCl application. To be noted: 100 mg/kg, i.v., 15 min prior to KCl; rat. The source says: Male Long-Evans rats (300-450 g) were used in the present studies (Harlan). Rats were anesthetized with urethane anesthesia (1.2 g/kg i.p.) and placed in a stereotaxic frame. Under anesthesia a Silastic catheter was placed in the jugular vein of the rats. The skull was exposed using a scalpel. A small hole (approximately 2 mm by 3 mm) was drilled in to the skull rostral to the lambdoid suture using a microdrill and steel burr. The dura was disrupted and a drop of mineral oil was placed in this hole to prevent dehydration of the underlying cortex. Ultimately this hole was used for the application of crystalline KCl (described below).
Two additional holes were place in the skull unilaterally at 4 and 8 mm rostral to the application hole. Silver wire electrodes were placed in these latter holes and secured to the skull using acrylic cement. A similar silver wire electrode was sutured to the nuchal muscle to serve as a reference electrode. Electrical DC recordings were obtained using a standard differential amplifier (Warner, DP-304) and commercially available data acquisition equipment (Cambridge Electronic Design, 1401 A-D converter and Spike2 software).
All experimental procedures were conducted while the rats were maintained under anesthesia. Rats were injected with test compound, valproic acid or vehicle (100% PEG-400) 15 min prior to the application of crystalline KCl to the application site described above. All injections were given via the jugular vein at a volume of ≦0.5 ml/kg. Only one treatment was tested per animal. The effect of valproic acid was also determined in this study due to the fact that Depakote™ (divalproex sodium) is one of only three drugs currently indicated for the prophylatic treatment of migraine headache. Valproic acid (30-200 mg/kg i.v.) was obtained from Sigma Chemical Company and was dissolved in a vehicle of isotonic saline.
KCl was applied to the application site for 10 min and was then removed using a saline soaked cotton swab. Mineral oil was subsequently reapplied to the application site. Typically, this application produced a long-lasting series of spreading depressions. The number of spreading depressions produced by this KCl application was the primary measure used to access the effectiveness of compounds in this assay.
Data were analyzed using analyses of variance followed by the Dunnett post-hoc test for pairwise comparisons, when appropriate. A difference was considered significant when p≦0.05.
The effect of representative compounds of Formula I on spreading depression is expressed as the percent reduction from vehicle control and is listed in Table 3.

Sequence of cloned mouse KCNQ2 (mKCNQ2) (Q9Z351 whole entry): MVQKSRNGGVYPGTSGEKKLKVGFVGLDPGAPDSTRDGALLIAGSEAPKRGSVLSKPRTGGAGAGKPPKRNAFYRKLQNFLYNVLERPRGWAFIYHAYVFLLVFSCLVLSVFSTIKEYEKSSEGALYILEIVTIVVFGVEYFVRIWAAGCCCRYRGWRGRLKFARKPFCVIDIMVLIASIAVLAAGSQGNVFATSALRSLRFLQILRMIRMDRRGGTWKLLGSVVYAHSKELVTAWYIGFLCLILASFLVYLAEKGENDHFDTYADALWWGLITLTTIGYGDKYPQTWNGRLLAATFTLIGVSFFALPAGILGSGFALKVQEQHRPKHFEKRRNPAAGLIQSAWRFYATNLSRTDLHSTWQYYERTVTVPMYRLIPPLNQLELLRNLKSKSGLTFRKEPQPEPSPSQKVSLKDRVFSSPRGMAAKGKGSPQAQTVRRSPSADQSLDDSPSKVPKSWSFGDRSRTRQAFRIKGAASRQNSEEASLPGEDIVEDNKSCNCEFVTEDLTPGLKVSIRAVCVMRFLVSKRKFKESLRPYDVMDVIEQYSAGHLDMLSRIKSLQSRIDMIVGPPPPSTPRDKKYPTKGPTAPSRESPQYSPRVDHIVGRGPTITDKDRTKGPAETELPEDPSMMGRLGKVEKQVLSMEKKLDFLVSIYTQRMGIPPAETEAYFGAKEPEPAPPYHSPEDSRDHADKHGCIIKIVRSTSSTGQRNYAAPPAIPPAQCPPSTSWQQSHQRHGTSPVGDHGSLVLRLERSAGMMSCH
T1 sequence (Q9Z351 whole entry): as above

Consider `CC(NC(=O)/C=C/c1ccc(F)cc1)c1ccc(F)c(N2CCOCC2)c1` (racemic) [Example 152, (±)-N-[1-(4-Fluoro-3-morpho-lin-4-yl-phenyl)-eth-yl]-3-(4-fluoro-phen-yl)-acrylamide], for which the “Stretched attend postures, percent of vehicle control” value in series [1] (separate experiments with a vehicle control, dose not given) was 80 % of vehicle control.
As to `CC(NC(=O)/C=C/c1cccc(F)c1)c1ccc2c(c1)OCCO2` (racemic) [Example 183, (±)-3-(3-Fluorophenyl)-N-[1-(2.3-dihydrobenzo[1,4]dioxin-6-yl)-ethyl]acrylamide], the activity at 10 µM in series [2] was 135%.
For `COC(=O)N1CCc2ccc(C(C)NC(=O)/C=C/c3ccccc3)cc2C1` (racemic) [Example 197, (±)-7-[1-(3-Phenyl-acryloyl-amino)-ethyl]-3,4-di-hydro-1H-iso-quinoline-2-carboxylic acid methyl ester], the activity at 10 µM in series [2] stood at 187%.
On to `COC(=O)N1CCc2ccc(C(C)NC(=O)/C=C/c3ccc(Cl)cc3)cc2C1` (racemic) [Example 199, (±)-7-{1-[3-(4-Chloro-phen-yl)-acryloylamino]-eth-yl}-3,4-dihydro-1H-iso-quinoline-2-carboxylic acid methyl ester], for which the activity at 5 µM in series [2] worked out at 138%.
For `COC(=O)N1CCc2ccc(C(C)NC(=O)/C=C/c3ccccc3C)cc2C1` (racemic) [Example 200, (±)-7-[1-(3-o-Tolyl-acryloyl-amino)-ethyl]-3,4-di-hydro-1H-iso-quinoline-2-carboxylic acid methyl ester], in series [2], the activity at 10 µM stood at 126%.
For the molecule `COC(=O)N1CCc2ccc(C(C)NC(=O)/C=C/c3ccccc3Cl)cc2C1` (racemic) [Example 201, (±)-7-{1-[3-(2-Chloro-phen-yl)-acryloylamino]-eth-yl}-3,4-dihydro-1H-iso-quinoline-2-carboxylic acid methyl ester], the activity at 5 µM in series [2] is 157%.
Take `CC(NC(=O)/C=C/c1ccc(Cl)cc1)c1ccc2c(c1)CCO2` (single isomer, unassigned) [Example 79, 3-(4-Chloro-phenyl)-N-[1-(2,3-di-hydro-benzo-furan-5-yl)-ethyl]-acrylamide]: the activity at 1 µM in series [2] turned out to be 123%.
`O=C1CC2(CCCC2)CC(=O)N1CCCCN1CCN(c2ncccn2)CC1` [Buspirone, buspirone, reference compound]: in series [1] (0.5 mg/kg, i.v., mouse), the “% Reduction SAPs” value is 71 (0.5 mg/kg. i.v.) %. Further, the “Reduction in stretched attend postures (in words)” value in series [1] (buspirone 0.5 mg/kg, compounds of Formula I administered IV) is recorded as “significant reduction”.
Regarding `C[C@H](NC(=O)/C=C/c1ccccc1)c1ccc2ccccc2c1` [Example 2, (S)-N-(1-Naphthalen-2-yl-eth-yl)-3-phenyl-acryla-mide], in series [2], the activity at 5 µM amounted to 160%.
Turning to `COc1cccc(/C=C/C(=O)N[C@@H](C)c2ccc3ccccc3c2)c1OC` [Example 6, (S)-3-(2,3-Dimethoxy-phen-yl)-N-(1-naphthalen-2-yleth-yl)-acrylamide], the activity at 1 µM in series [2] amounted to 110%.
Still for that read-out and setting: in the case of `C[C@H](NC(=O)/C=C/c1ccc(OC(F)(F)F)cc1)c1ccc2ccccc2c1` [Example 19, (S)-N-(1-Naphthalen-2-yl-eth-yl)-3-(4-tri-fluoromethoxy-phen-yl)-acrylamide] it was 123%.
As to `CC(NC(=O)/C=C/c1cc(F)cc(F)c1)c1ccc2c(c1)CCCN2` (stereo not shown) [Example 248, 3-(3,5-difluoro-phenyl)-N-[1-(1,2,3,4-tetrahydro-quinolin-6-yl)-ethyl]acrylamide], the melting point is 180 °C (dec.). In addition, the EC50 on mKCNQ2 channels (@ −40 mV) amounted to 5 µM. Further, the Emax at mKCNQ2 channels (HEK293, read-out: Imax (%)) was found to be 290%.
Turning to `CCCC(CCC)C(=O)O` [Valproic acid, reference compound], the “% Reduction (number of spreading depressions, from vehicle control)” value in series [3] is on record as 31 (100 mg/kg, i.v.) %.
